Laboratory results reported in patent US4112086A, “7β-Acylamino-3-(phosphonoalkyl and esterified phosphonoalkyl substituted tetrazolylthiomethyl)cephalosporins” (SmithKline Corporation, priority 1976, dated 1978).
In brackets after ≈: the same amount, converted by molar mass. Where a name gives a salt, the structure may show the parent alone. Read-outs that look alike come from different tables or passages of the source.

Tests used:
[1] = system: Entero. aerog. ATCC 13048; experiment: in vitro testing, minimum inhibitory concentration (MIC); assay type: cell-based
Experimental: (§1) The compounds of Formula I have anti-bacterial activity against both Gram-positive and Gram-negative organisms. Minimum inhibitory concentrations (MIC's) range from 0.1 to >200 μg/ml in in vitro testing. Test results for the compounds 7β-D-mandelamido-3-(1-diethoxyphosphinylmethyltetrazol-5-ylthiomethyl)-3-cephem-4-carboxylic acid sodium salt hydrate (Compound A), 7β-D-mandelamido-3-(1-ethoxyhydroxyphosphinylmethyltetrazol-5-ylthiomethyl)-3-cephem-4-carboxylic acid disodium salt hydrate (Compound B) and 7β-D-mandelamido-3-(1-phosphonomethyltetrazol-5-ylthiomethyl)-3-cephem-4-carboxylic acid (Compound C) are given below. Results shown in parenthesis are those obtained for cefazolin.

S. villaluz SK 70390 = experiment: as above; assay type: cell-based; conditions: cefazolin values in parenthesis
Experimental: as §1

Pseudo. aerug. HH 63 = experiment: as above; assay type: cell-based
Experimental: as §1

Kleb. pneumo. SK 4200 = experiment: as above; assay type: cell-based; conditions: cefazolin values in parenthesis
Experimental: as §1

Proteus mirabilis 444 = experiment: as above; assay type: cell-based
Experimental: as §1

E. coli HH 33779 = experiment: as above; assay type: cell-based
Experimental: as §1

Salmonella ATCC 12176 = experiment: as above; assay type: cell-based
Experimental: as §1

Proteus morgani 179 = experiment: as above; assay type: cell-based; conditions: cefazolin values in parenthesis
Experimental: as §1

E. coli SK 12140 = experiment: as above; assay type: cell-based
Experimental: as §1

Entero. cloacae HH 31254 = experiment: as above; assay type: cell-based; conditions: Enterobacter cloacae, HH31254
Experimental: as §1

Kleb. pneumo. SK 1200 = experiment: as above; assay type: cell-based
Experimental: as §1

S. aureus SK 23390 = experiment: as above; assay type: cell-based
Experimental: as §1

Strep. faecalis HH 34358 = experiment: as above; assay type: cell-based
Experimental: as §1

[2] = system: Serratia marc. ATCC 13880; experiment: as above; assay type: cell-based
Experimental: as §1

S. aureus SK 127 = experiment: as above; assay type: cell-based; conditions: Staphylococcus aureus, SK127, cefazolin values in parenthesis
Experimental: as §1

E. coli 12140 = experiment: in vivo mouse protection test
Experimental: (§2) 4200 upon subcutaneous injection; cefazolin gave results of 4.4 mg/kg against E. coli 12140 and 7.2 mg/kg against Kleb. pneumo. 4200 upon subcutaneous administration.

Kleb. pneumo. 4200 = experiment: in vivo mouse protection test; conditions: sc
Experimental: as §2

[3] = Entero. aerog. ATCC 13048, in vitro, cefazolin values in parenthesis, read-out: MIC
[4] = Pseudo. aerug. HH 63, in vitro, cefazolin values in parenthesis, read-out: MIC
[5] = Proteus mirabilis 444, cefazolin values in parenthesis, read-out: MIC
[6] = Escherichia coli, HH33779, E. coli HH 33779, cefazolin values in parenthesis, read-out: MIC
[7] = Escherichia coli, SK12140, E. coli SK 12140, in vitro, cefazolin values in parenthesis, read-out: MIC
[8] = Entero. cloacae HH 31254, in vitro, cefazolin values in parenthesis, read-out: MIC
[9] = Kleb. pneumo. SK 1200, in vitro, cefazolin values in parenthesis, read-out: MIC
[10] = Staphylococcus aureus, SK23390, S. aureus SK 23390, in vitro, cefazolin values in parenthesis, read-out: MIC
[11] = Enterococcus faecalis, HH34358, cefazolin values in parenthesis, read-out: MIC
[12] = Salmonella, ATCC12176, Salmonella ATCC 12176, cefazolin values in parenthesis, read-out: MIC
[13] = Serratia, ATCC13880, Serratia marc. ATCC 13880, cefazolin values in parenthesis, read-out: MIC

| Structure (SMILES) | MIC (S. villaluz SK 70390; read-out: MIC) [µg/mL] | MIC (Proteus morgani 179) [µg/mL] | MIC [1, 3] [µg/mL] | MIC (S. aureus SK 127) [µg/mL] | MIC (Pseudo. aerug. HH 63; [4]) [µg/mL] | MIC (Kleb. pneumo. SK 4200; read-out: MIC) [µg/mL] | MIC (Proteus mirabilis 444; [5]) [µg/mL] | MIC (E. coli HH 33779; [6]) [µg/mL] | MIC (E. coli SK 12140; [7]) [µg/mL] | MIC (Entero. cloacae HH 31254; [8]) [µg/mL] | MIC (Kleb. pneumo. SK 1200; [9]) [µg/mL] | MIC (S. aureus SK 23390; [10]) [µg/mL] | MIC (Strep. faecalis HH 34358; [11]) [µg/mL] | MIC (Salmonella ATCC 12176; [12]) [µg/mL] | MIC (Proteus morgani 179; read-out: MIC) [µg/mL] | MIC [2, 13] [µg/mL] | also measured |
| --- | --- | --- | --- | --- | --- | --- | --- | --- | --- | --- | --- | --- | --- | --- | --- | --- | --- |
| CCOP(=O)(Cn1nnnc1SCC1=C(C(=O)[O-])N2C(=O)[C@@H](NC(=O)[C@H](O)c3ccccc3)[C@H]2SC1)OCC.O.[Na+] [Compound A, 7β-D-mandelamido-3-(1-diethoxyphosphinylmethyltetrazol-5-ylthiomethyl)-3-cephem-4-carboxylic acid sodium salt hydrate] | 50 | 3.1 | – | – | – | – | – | – | – | – | – | – | – | – | – | – | MIC [1]: 12.5 µg/mL; MIC (Pseudo. aerug. HH 63): > 200 µg/mL; MIC (Kleb. pneumo. SK 4200): 3.1 µg/mL; MIC (Kleb. pneumo. SK 4200; sodium salt hydrate): 1.6 µg/mL; MIC (Proteus mirabilis 444; Proteus mirabilis 444, cefazolin values in parenthesis, sodium salt hydrate): 1.6 µg/mL; MIC (Proteus mirabilis 444; Proteus mirabilis, 444, Proteus mirabilis 444, cefazolin values in parenthesis): 3.1 µg/mL; MIC (E. coli HH 33779; E. coli HH 33779, cefazolin values in parenthesis, sodium salt hydrate): 6.3 µg/mL; MIC (E. coli HH 33779; Escherichia coli, HH33779, E. coli HH 33779, cefazolin values in parenthesis): 12.5 µg/mL; MIC (Salmonella ATCC 12176; Salmonella ATCC 12176, cefazolin values in parenthesis, sodium salt hydrate): 1.6 µg/mL; MIC (Salmonella ATCC 12176; Salmonella, ATCC12176, Salmonella ATCC 12176, cefazolin values in parenthesis): 3.1 µg/mL; MIC (Proteus morgani 179; sodium salt hydrate): 1.6 µg/mL; MIC (E. coli SK 12140; Escherichia coli, SK12140): 6.3 µg/mL; MIC (Entero. cloacae HH 31254): 3.1 µg/mL; MIC (Kleb. pneumo. SK 1200): 3.1 µg/mL; MIC (S. aureus SK 23390; Staphylococcus aureus, SK23390): 0.8 µg/mL; MIC (Strep. faecalis HH 34358; Enterococcus faecalis, HH34358, cefazolin values in parenthesis): 12.5 µg/mL; MIC (Strep. faecalis HH 34358; cefazolin values in parenthesis, sodium salt hydrate): 25 µg/mL; MIC ([2]; Serratia marc. ATCC 13880, cefazolin values in parenthesis, sodium salt hydrate): 12.5 µg/mL; MIC ([2]; Serratia, ATCC13880, Serratia marc. ATCC 13880, cefazolin values in parenthesis): 25 µg/mL |
| CCOP(=O)(O)Cn1nnnc1SCC1=C(C(=O)O)N2C(=O)[C@@H](NC(=O)[C@H](O)c3ccccc3)[C@H]2SC1 [Compound B, 7β-D-mandelamido-3-(1-ethoxyhydroxyphosphinylmethyltetrazol-5-ylthiomethyl)-3-cephem-4-carboxylic acid disodium salt hydrate] | > 200 | – | 3.1 | 6.3 | > 200 | 0.4 | 1.6 | 1.6 | 0.4 | 0.8 | 0.4 | 1.6 | 100 | – | – | – | MIC (E. coli SK 12140; E. coli SK 12140, in vitro, cefazolin values in parenthesis, disodium salt hydrate): 0.8 µg/mL; MIC (Strep. faecalis HH 34358; cefazolin values in parenthesis, disodium salt hydrate): 50 µg/mL; ED50 (E. coli 12140; Escherichia coli, 12140, sc): 1.02 mg/kg; ED50 (Kleb. pneumo. 4200; Mus musculus): 0.39 mg/kg |
| O=C(O)C1=C(CSc2nnnn2CP(=O)(O)O)CS[C@@H]2[C@H](NC(=O)[C@H](O)c3ccccc3)C(=O)N12 [Compound C, 7β-D-mandelamido-3-(1-phosphonomethyltetrazol-5-ylthiomethyl)-3-cephem-4-carboxylic acid] | > 200 | – | 6.3 (≈ 11.6 µM) | 6.3 (≈ 11.6 µM) | > 200 | 1.6 (≈ 2.95 µM) | 0.4 (≈ 0.737 µM) | 3.1 (≈ 5.71 µM) | 3.1 (≈ 5.71 µM) | 1.6 (≈ 2.95 µM) | 0.8 (≈ 1.47 µM) | 3.1 (≈ 5.71 µM) | 200 (≈ 369 µM) | 0.8 (≈ 1.47 µM) | 50 (≈ 92.2 µM) | 3.1 (≈ 5.71 µM) | – |
| Cc1nnc(SCC2=C(C(=O)O)N3C(=O)[C@@H](NC(=O)Cn4cnnn4)[C@H]3SC2)s1 [cefazolin, reference compound] | – | 100 (≈ 220 µM) | – | 0.4 (≈ 0.88 µM) | > 200 | 1.6 (≈ 3.52 µM) | 3.1 (≈ 6.82 µM) | 1.6 (≈ 3.52 µM) | 0.8 (≈ 1.76 µM) | 0.8 (≈ 1.76 µM) | 0.8 (≈ 1.76 µM) | 0.4 (≈ 0.88 µM) | 6.3 (≈ 13.9 µM) | 0.8 (≈ 1.76 µM) | 200 (≈ 440 µM) | > 200 | MIC (S. villaluz SK 70390): 100 µg/mL (≈ 220 µM); MIC (E. coli HH 33779; E. coli HH 33779, cefazolin values in parenthesis): 0.8 µg/mL (≈ 1.76 µM); MIC (Salmonella ATCC 12176; Salmonella ATCC 12176, cefazolin values in parenthesis): 0.4 µg/mL (≈ 0.88 µM); MIC (Kleb. pneumo. SK 1200; Kleb. pneumo. SK 1200, in vitro, cefazolin values in parenthesis): 0.4 µg/mL (≈ 0.88 µM); MIC (S. aureus SK 23390; S. aureus SK 23390, in vitro, cefazolin values in parenthesis): 0.2 µg/mL (≈ 0.44 µM); MIC ([2]; ATCC13880, Serratia marc. ATCC 13880, cefazolin values in parenthesis, read-out: MIC): 50 µg/mL (≈ 110 µM); ED50 (E. coli 12140; Escherichia coli, sc, mouse protection, E. coli 12140, subcutaneous, read-out: ED50): 4.4 mg/kg; ED50 (Kleb. pneumo. 4200; mouse protection, Kleb. pneumo. 4200, subcutaneous, read-out: ED50): 7.2 mg/kg |
